Measured values: ChEMBL document CHEMBL4421717, “Antagonists and agonists of bitter taste receptors and uses thereof” (2012)
Active and inactive are the calls of the source. The calls are words filed in the database; no cut-off is given here.

Legend:
Format in all cases: functional, cell-based
[1] = biological target: T1, Taste receptor type 2 member 46 (Homo sapiens, UniProt P59540); assay: Antagonist activity at recombinant human N-terminal rat ST3 receptor-fused TAS2R46 expressed in HEK293T cells co-expressing Galpha16gust44 assessed as inhibition of 300 uM denatonium benzoate-induced intracellular calcium level 100 uM by FLIPR assay
T1 sequence (P59540 whole entry): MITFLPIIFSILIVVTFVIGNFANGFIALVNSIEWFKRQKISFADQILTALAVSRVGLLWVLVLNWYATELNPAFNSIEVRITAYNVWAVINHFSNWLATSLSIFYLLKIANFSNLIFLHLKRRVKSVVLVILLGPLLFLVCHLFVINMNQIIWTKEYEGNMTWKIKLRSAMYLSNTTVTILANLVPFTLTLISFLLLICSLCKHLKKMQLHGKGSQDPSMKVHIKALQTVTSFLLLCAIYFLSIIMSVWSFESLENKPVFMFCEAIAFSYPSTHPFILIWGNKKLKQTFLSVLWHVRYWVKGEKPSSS

[2] = biological target: T2, Taste receptor type 2 member 4 (Homo sapiens) (UniProt Q9NYW5); assay: Agonist activity at recombinant human N-terminal rat ST3 receptor-fused TAS2R4 expressed in HEK293T cells co-expressing Galpha16gust44 assessed as effect on intracellular calcium level at 100 uM by FLIPR assay
T2 sequence (whole entry): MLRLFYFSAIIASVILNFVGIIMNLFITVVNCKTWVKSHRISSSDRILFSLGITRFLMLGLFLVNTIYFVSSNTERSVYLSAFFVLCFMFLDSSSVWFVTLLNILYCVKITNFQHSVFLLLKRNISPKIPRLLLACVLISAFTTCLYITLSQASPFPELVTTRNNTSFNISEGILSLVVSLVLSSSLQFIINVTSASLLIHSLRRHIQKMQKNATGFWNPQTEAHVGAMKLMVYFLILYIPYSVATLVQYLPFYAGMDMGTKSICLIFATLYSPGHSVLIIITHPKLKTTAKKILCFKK

[3] = biological target: Taste receptor type 2 member 7 (Homo sapiens) (UniProt Q9NYW3); assay: Agonist activity at recombinant human N-terminal rat ST3 receptor-fused TAS2R7 expressed in HEK293T cells co-expressing Galpha16gust44 assessed as effect on intracellular calcium level at 100 uM by FLIPR assay
Chain of Taste receptor type 2 member 7 (Homo sapiens) (Q9NYW3 whole entry, the tested form may be a part): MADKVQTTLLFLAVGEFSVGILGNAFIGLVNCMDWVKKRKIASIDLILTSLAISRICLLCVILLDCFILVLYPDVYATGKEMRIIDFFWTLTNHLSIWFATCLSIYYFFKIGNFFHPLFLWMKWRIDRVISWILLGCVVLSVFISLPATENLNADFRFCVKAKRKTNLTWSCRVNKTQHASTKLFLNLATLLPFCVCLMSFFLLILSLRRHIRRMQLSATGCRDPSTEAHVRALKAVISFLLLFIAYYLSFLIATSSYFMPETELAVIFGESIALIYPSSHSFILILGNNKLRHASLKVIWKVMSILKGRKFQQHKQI

[4] = biological target: Taste receptor type 2 member 31 (Homo sapiens) (UniProt P59538); assay: Agonist activity at recombinant human N-terminal rat ST3 receptor-fused TAS2R44 expressed in HEK293T cells co-expressing Galpha16gust44 assessed as effect on intracellular calcium level at 100 uM by FLIPR assay
Chain of Taste receptor type 2 member 31 (Homo sapiens) (P59538 whole entry, the tested form may be a part): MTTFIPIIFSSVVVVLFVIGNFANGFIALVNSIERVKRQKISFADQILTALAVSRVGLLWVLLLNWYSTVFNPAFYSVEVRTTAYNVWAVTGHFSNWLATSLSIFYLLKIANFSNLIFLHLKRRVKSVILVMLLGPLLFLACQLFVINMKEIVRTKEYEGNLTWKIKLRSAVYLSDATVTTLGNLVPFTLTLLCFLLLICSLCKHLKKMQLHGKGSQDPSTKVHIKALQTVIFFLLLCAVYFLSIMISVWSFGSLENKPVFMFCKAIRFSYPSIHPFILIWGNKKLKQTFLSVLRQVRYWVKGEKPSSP

[5] = biological target: T3, Taste receptor type 2 member 9 (Homo sapiens) (UniProt Q9NYW1); assay: Agonist activity at recombinant human N-terminal rat ST3 receptor-fused TAS2R9 expressed in HEK293T cells co-expressing Galpha16gust44 assessed as effect on intracellular calcium level at 100 uM by FLIPR assay
T3 sequence (whole entry): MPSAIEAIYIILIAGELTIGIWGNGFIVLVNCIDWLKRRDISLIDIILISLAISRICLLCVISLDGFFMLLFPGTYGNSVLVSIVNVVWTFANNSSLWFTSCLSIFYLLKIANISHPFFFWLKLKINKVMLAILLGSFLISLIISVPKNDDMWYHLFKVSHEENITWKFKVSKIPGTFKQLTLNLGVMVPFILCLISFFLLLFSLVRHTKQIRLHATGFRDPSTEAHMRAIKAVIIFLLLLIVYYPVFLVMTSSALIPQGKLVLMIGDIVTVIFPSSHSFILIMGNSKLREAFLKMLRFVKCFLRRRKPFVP

[6] = biological target: T4, Taste receptor type 2 member 39 (Homo sapiens) (UniProt P59534); assay: Agonist activity at recombinant human N-terminal rat ST3 receptor-fused TAS2R39 expressed in HEK293T cells co-expressing Galpha16gust44 assessed as effect on intracellular calcium level at 100 uM by FLIPR assay
T4 sequence (whole entry): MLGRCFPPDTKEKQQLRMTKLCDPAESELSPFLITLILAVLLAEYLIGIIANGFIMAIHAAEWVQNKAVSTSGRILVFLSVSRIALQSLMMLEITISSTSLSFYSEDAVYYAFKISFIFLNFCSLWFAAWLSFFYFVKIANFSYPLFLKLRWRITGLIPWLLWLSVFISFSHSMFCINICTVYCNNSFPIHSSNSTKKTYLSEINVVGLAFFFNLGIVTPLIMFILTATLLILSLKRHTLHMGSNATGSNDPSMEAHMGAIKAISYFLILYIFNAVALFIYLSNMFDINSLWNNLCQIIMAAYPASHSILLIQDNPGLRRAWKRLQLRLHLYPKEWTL

[7] = biological target: Taste receptor type 2 member 40 (Homo sapiens) (UniProt P59535); assay: Agonist activity at recombinant human N-terminal rat ST3 receptor-fused TAS2R40 expressed in HEK293T cells co-expressing Galpha16gust44 assessed as effect on intracellular calcium level at 100 uM by FLIPR assay
Chain of Taste receptor type 2 member 40 (Homo sapiens) (P59535 whole entry, the tested form may be a part): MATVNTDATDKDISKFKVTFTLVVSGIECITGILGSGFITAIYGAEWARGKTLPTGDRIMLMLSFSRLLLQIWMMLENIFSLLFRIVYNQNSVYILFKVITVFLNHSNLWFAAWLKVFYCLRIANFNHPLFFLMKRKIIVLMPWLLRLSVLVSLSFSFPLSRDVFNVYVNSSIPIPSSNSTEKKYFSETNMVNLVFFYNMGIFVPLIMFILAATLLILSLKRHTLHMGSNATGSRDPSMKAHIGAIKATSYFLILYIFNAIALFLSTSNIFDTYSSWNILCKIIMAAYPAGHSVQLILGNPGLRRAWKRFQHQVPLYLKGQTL

[8] = biological target: Taste receptor type 2 member 41 (Homo sapiens) (UniProt P59536); assay: Agonist activity at recombinant human N-terminal rat ST3 receptor-fused TAS2R41 expressed in HEK293T cells co-expressing Galpha16gust44 assessed as effect on intracellular calcium level at 100 uM by FLIPR assay
Chain of Taste receptor type 2 member 41 (Homo sapiens) (P59536 whole entry, the tested form may be a part): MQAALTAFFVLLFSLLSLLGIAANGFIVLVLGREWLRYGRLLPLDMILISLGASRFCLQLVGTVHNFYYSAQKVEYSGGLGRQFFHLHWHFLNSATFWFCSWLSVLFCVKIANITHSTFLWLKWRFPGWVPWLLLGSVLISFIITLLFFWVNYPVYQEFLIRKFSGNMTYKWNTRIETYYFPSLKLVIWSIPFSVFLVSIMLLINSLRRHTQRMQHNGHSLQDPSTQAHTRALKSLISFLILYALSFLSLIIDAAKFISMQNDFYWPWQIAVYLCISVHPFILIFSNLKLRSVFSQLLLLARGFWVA

[9] = biological target: T5, Taste receptor type 2 member 50 (Homo sapiens) (UniProt P59544); assay: Agonist activity at recombinant human N-terminal rat ST3 receptor-fused TAS2R50 expressed in HEK293T cells co-expressing Galpha16gust44 assessed as effect on intracellular calcium level at 100 uM by FLIPR assay
T5 sequence (whole entry): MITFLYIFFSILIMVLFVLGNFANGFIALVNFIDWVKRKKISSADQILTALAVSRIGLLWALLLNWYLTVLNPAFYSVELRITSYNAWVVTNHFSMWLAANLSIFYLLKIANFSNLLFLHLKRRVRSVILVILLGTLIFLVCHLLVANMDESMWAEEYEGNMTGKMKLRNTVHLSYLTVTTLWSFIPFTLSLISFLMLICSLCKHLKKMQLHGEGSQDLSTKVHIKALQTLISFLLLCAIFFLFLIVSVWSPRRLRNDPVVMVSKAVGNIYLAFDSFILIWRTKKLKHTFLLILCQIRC

[10] = biological target: Taste receptor type 2 member 60 (Homo sapiens) (UniProt P59551); assay: Agonist activity at recombinant human N-terminal rat ST3 receptor-fused TAS2R60 expressed in HEK293T cells co-expressing Galpha16gust44 assessed as effect on intracellular calcium level at 100 uM by FLIPR assay
Chain of Taste receptor type 2 member 60 (Homo sapiens) (P59551 whole entry, the tested form may be a part): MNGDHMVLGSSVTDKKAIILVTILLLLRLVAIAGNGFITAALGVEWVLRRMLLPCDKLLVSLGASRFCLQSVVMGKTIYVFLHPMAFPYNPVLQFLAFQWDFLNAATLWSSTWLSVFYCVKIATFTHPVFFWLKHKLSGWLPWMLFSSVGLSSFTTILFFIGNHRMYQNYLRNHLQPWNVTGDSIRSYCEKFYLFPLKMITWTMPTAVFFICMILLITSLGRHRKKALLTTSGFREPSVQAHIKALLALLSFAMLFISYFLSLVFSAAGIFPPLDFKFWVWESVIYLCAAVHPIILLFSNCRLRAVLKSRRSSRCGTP

[11] = biological target: T6, Taste receptor type 2 member 46 (Homo sapiens) (UniProt P59540); assay: (§1) Competitive antagonist activity at recombinant human N-terminal rat ST3 receptor-fused TAS2R46 expressed in HEK293T cells co-expressing Galpha16gust44 assessed as inhibition strychnine-induced intracellular calcium level by measuring strychnine induced maximum signal amplitude at 10 uM by FLIPR assay (reference value: 0.42 +/- 0.09 au))
T6 sequence (whole entry): T1 sequence (P59540 whole entry)

[12] = biological target: T6, Taste receptor type 2 member 46 (Homo sapiens); assay: as §1, with “100” for “10”

Row | Structure (SMILES) | IC50 [1] [µM] | Activity [2] | Activity [3] | Activity [4] | Activity [5] | Activity [6] | Activity [7] | Activity [8] | Activity [9] | Activity [10] | Activity [11] [a.u.] | Activity [12] [a.u.]
1 | C/C1=C\C[C@H](O)[C@@H](C)C[C@H]2OC(=O)[C@@H](C)C2CC1 (some centres not stated) | 51.4 | – | – | – | – | – | – | – | – | – | – | –
2 | C/C1=C\C[C@H](O)/C(C)=C/[C@H]2OC(=O)[C@@H](C)C2CC1 (some centres not stated) | – | Active | Active | Active | inactive | inactive | inactive | inactive | inactive | inactive | 0.4 | 0.34
